Results from patent publication US6737383B1, “Herbicidal oxadiazolidines” (priority 1999, dated 2004).

Experiments:
sugar beet = assay: Test B pre/postemergence sugar beet; assay type: in vivo, Beta vulgaris
How it was run: (§1)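 Response is a visual 0-to-10 score relative to untreated plants, where 0 means no effect and 10 means complete control, taken twelve to sixteen days after application. Treatments went onto soil at planting and onto foliage of 1- to 4-leaf plants, using a surfactant-containing non-phytotoxic solvent.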

bamyardgrass = assay: Test B flood test barnyardgrass; assay type: in vivo, Echinochloa crus-galli
How it was run: (§2)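 Flood test on plants grown to the 2-leaf stage; treated plants kept in greenhouse twelve to sixteen days, then visually rated against controls on a 0 (no effect) to 10 (complete control) scale.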

morningglory = assay: Test B pre/postemergence morningglory; assay type: in vivo, Ipomoea hederacea
How it was run: as §1

wheat = assay: Test B pre/postemergence wheat; assay type: in vivo, Triticum aestivum
How it was run: as §1

cocklebur = assay: Test B pre/postemergence cocklebur; assay type: in vivo, Xanthium strumarium
How it was run: as §1

giant foxtail = assay: Test B pre/postemergence giant foxtail; assay type: in vivo, Setaria faberii
How it was run: as §1

crabgrass = assay: Test B pre/postemergence crabgrass; assay type: in vivo, Digitaria sanguinalis
How it was run: as §1

smallflower flatsedge = assay: Test B flood test smallflower flatsedge; assay type: in vivo, Cyperus difformis
How it was run: as §2

rice = assay: Test B flood test rice; assay type: in vivo, Oryza sativa
How it was run: as §2

surinam grass = assay: Test B pre/postemergence surinam grass; assay type: in vivo, Brachiaria decumbens
How it was run: as §1

rape = assay: Test B pre/postemergence rape; assay type: in vivo, Brassica napus
How it was run: as §1

pigweed = assay: Test B pre/postemergence pigweed; assay type: in vivo, Amaranthus retroflexus
How it was run: as §1

wild oat = assay: Test B pre/postemergence wild oat; assay type: in vivo, Avena fatua
How it was run: as §1

duck salad = assay: Test B flood test duck salad; assay type: in vivo, Heteranthera limosa
How it was run: as §2

corn = assay: Test B pre/postemergence corn; assay type: in vivo, Zea mays
How it was run: as §1

purple nutsedge = assay: Test B pre/postemergence purple nutsedge; assay type: in vivo, Cyperus rotundus
How it was run: as §1

[1] = Postemergence, Rate 125 g/ha, scale of 0 to 10 where 0 is no effect and 10 is complete control
[2] = Postemergence, Rate 250 g/ha, scale of 0 to 10, 0 is no effect, 10 is complete control
[3] = Postemergence, Rate 500 g/ha, scale of 0 to 10 where 0 is no effect and 10 is complete control
[4] = Preemergence, Rate 62 g/ha, scale 0 to 10 (0 no effect, 10 complete control)
[5] = Preemergence, Rate 125 g/ha, scale of 0 to 10 where 0 is no effect and 10 is complete control
[6] = Preemergence, Rate 500 g/ha, scale of 0 to 10 where 0 is no effect and 10 is complete control
[7] = Rate 62 g/ha, flood test species, Pre-emergence, visual evaluation after twelve to sixteen days
[8] = Rate 125 g/ha, under heading Pre-emergence, flood test species, visual evaluation after twelve to sixteen days
[9] = Rate 250 g/ha, Pre-emergence (flood test species), scale 0 to 10, 0 is no effect, 10 is complete control
[10] = Rate 500 g/ha, Pre-emergence section of Table B, 0 to 10 scale (0 no effect, 10 complete control)
[11] = Postemergence, Rate 62 g/ha, scale of 0 to 10, 0 is no effect, 10 is complete control

CC(C)N(C(=O)n1oc(=O)n(CC(=O)C(F)(F)F)c1=O)c1ccc(F)cc1F [Compound 598]
0: Plant response rating, Sugarbeets (sugar beet; [1]) | Sugarbeets plant response rating (sugar beet; [2]) | Plant response rating, Sugarbeets (sugar beet; [3]) | Sugarbeets plant response rating (sugar beet; [4]) | Sugarbeets plant response rating (sugar beet; [5]) | Plant response rating, Sugarbeets (sugar beet; [6]) | Plant response rating, Barnyardgrass (0 to 10 scale, 0 is no effect, 10 is complete control) (bamyardgrass; [7]) | Barnyardgrass plant response rating (0 to 10 scale, 0 is no effect, 10 is complete control) (bamyardgrass; [8]) | Barnyardgrass plant response rating (bamyardgrass; [9]) | Barnyardgrass plant response rating (bamyardgrass; [10]) | Morningglory plant response rating (morningglory; [11]) | Plant response rating, Morningglory (morningglory; [1]) | Morningglory plant response rating (morningglory; [2]) | Plant response rating, Morningglory (morningglory; [3]) | Morningglory plant response rating (morningglory; [4]) | Morningglory plant response rating (morningglory; [5]) | Plant response rating, Morningglory (morningglory; [6]) | Plant response rating, Wheat (wheat; [1]) | Wheat plant response rating (wheat; [2]) | Plant response rating, Wheat (wheat; [3]) | Wheat plant response rating (wheat; [4]) | Wheat plant response rating (wheat; [5]) | Plant response rating, Wheat (wheat; [6]) | Cocklebur plant response rating (cocklebur; [11]) | Plant response rating, Cocklebur (cocklebur; [1]) | Cocklebur plant response rating (cocklebur; [2]) | Plant response rating, Cocklebur (cocklebur; [3]) | Cocklebur plant response rating (cocklebur; [4]) | Cocklebur plant response rating (cocklebur; [5]) | Cocklebur plant response rating (0 to 10 scale) (cocklebur; Preemergence, Rate 250 g/ha) | Plant response rating, Cocklebur (cocklebur; [6]) | Giant foxtail plant response rating (giant foxtail; [11]) | Plant response rating, Giant foxtail (giant foxtail; [1]) | Giant foxtail plant response rating (giant foxtail; [2]) | Plant response rating, Giant foxtail (giant foxtail; [3]) | Giant foxtail plant response rating (giant foxtail; [4]) | Giant foxtail plant response rating (giant foxtail; [5]) | Plant response rating, Giant foxtail (giant foxtail; [6]) | Crabgrass plant response rating (crabgrass; [11]) | Plant response rating, Crabgrass (crabgrass; [1]) | Crabgrass plant response rating (crabgrass; [2]) | Plant response rating, Crabgrass (crabgrass; [3]) | Crabgrass plant response rating (crabgrass; [4]) | Crabgrass plant response rating (crabgrass; [5]) | Plant response rating, Crabgrass (crabgrass; [6]) | Plant response rating, S. Flatsedge (0 to 10 scale, 0 is no effect, 10 is complete control) (smallflower flatsedge; [7]) | S. Flatsedge plant response rating (0 to 10 scale, 0 is no effect, 10 is complete control) (smallflower flatsedge; [8]) | S. Flatsedge plant response rating (smallflower flatsedge; [9]) | S. Flatsedge plant response rating (smallflower flatsedge; [10]) | Plant response rating, Rice (0 to 10 scale, 0 is no effect, 10 is complete control) (rice; [7]) | Rice plant response rating (0 to 10 scale, 0 is no effect, 10 is complete control) (rice; [8]) | Rice plant response rating (rice; [9]) | Rice plant response rating (rice; [10]) | B. signalgrass plant response rating (surinam grass; [11]) | Plant response rating, B. signalgrass (surinam grass; [1]) | B. signalgrass plant response rating (surinam grass; [2]) | Plant response rating, B. signalgrass (surinam grass; [3]) | B. signalgrass plant response rating (surinam grass; [4]) | B. signalgrass plant response rating (surinam grass; [5]) | B. signalgrass plant response rating (0 to 10 scale, 0 is no effect, 10 is complete control) (surinam grass; Preemergence, Rate 250 g/ha) | B. signalgrass plant response rating (surinam grass; [6]) | Rape plant response rating (rape; [11]) | Plant response rating, Rape (rape; [1]) | Rape plant response rating (rape; [2]) | Plant response rating, Rape (rape; [3]) | Rape plant response rating (rape; [4]) | Rape plant response rating (rape; [5]) | Plant response rating, Rape (rape; [6]) | Plant response rating, Redroot pigweed (pigweed; [1]) | Redroot pigweed plant response rating (pigweed; [2]) | Plant response rating, Redroot pigweed (pigweed; [3]) | Redroot pigweed plant response rating (pigweed; [4]) | Redroot pigweed plant response rating (pigweed; [5]) | Plant response rating, Redroot pigweed (pigweed; [6]) | Plant response rating, Wild oats (wild oat; [1]) | Wild oats plant response rating (wild oat; [2]) | Plant response rating, Wild oats (wild oat; [3]) | Wild oats plant response rating (wild oat; [4]) | Wild oats plant response rating (wild oat; [5]) | Plant response rating, Wild oats (wild oat; [6]) | Plant response rating, Ducksalad (0 to 10 scale, 0 is no effect, 10 is complete control) (duck salad; [7]) | Ducksalad plant response rating (0 to 10 scale, 0 is no effect, 10 is complete control) (duck salad; [8]) | Ducksalad plant response rating (duck salad; [9]) | Ducksalad plant response rating (duck salad; [10]) | Corn plant response rating (corn; [11]) | Plant response rating, Corn (corn; [1]) | Corn plant response rating (corn; [2]) | Plant response rating, Corn (corn; [3]) | Corn plant response rating (corn; [4]) | Corn plant response rating (corn; [5]) | Corn plant response rating (0 to 10 scale) (corn; Preemergence, Rate 250 g/ha) | Plant response rating, Corn (corn; [6]) | Nutsedge plant response rating (purple nutsedge; [11]) | Plant response rating, Nutsedge (purple nutsedge; [1]) | Nutsedge plant response rating (purple nutsedge; [2]) | Plant response rating, Nutsedge (purple nutsedge; [3]) | Nutsedge plant response rating (purple nutsedge; [4]) | Nutsedge plant response rating (purple nutsedge; [5]) | Plant response rating, Nutsedge (purple nutsedge; [6])
